How the values were obtained:
[1] = system: DLD-1; test: Selectivity ratio of IC50 for mutant KRAS allele-deficient human DLD1 cells to IC50 for human DLD1 cells harboring mutant KRAS; format: functional
[2] = system: DLD-1; test: Cytotoxicity against human DLD1 cells harboring mutant KRAS; format: functional, cell-based
[3] = system: DLD-1; test: Cytotoxicity against mutant KRAS allele-deficient human DLD1 cells; format: functional, cell-based
[4] = Inhibition of human Rce1p using quenched fluorogenic substrate by fluorescence assay
[5] = Inhibition of yeast Rce1p using yeast a-factor mating pheromone substrate; parameters: species or system Saccharomyces cerevisiae
[6] = target: T1, Dual specificity mitogen-activated protein kinase kinase 1 (Homo sapiens, UniProt Q02750); test: Inhibition of MEK1 (unknown origin)
T1 sequence (Q02750 whole entry): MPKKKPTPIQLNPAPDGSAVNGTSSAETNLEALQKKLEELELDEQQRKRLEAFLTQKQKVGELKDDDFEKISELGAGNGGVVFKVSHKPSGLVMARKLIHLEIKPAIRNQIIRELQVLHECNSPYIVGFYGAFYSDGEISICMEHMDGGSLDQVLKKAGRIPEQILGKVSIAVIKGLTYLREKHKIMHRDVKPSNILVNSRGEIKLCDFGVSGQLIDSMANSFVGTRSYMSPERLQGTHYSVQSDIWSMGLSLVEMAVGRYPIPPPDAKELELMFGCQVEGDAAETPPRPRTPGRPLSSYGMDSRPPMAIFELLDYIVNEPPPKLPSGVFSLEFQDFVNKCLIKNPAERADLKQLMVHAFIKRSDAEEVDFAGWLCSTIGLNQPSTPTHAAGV

[7] = system: Mus musculus; test: Inhibition of MEK1-mediated ERK phosphorylation in human LOX cells xenografted in nude mouse assessed as plasma concentration required for inhibition at 100 mg/kg, po administered as single dose measured after 1 to 12 hrs by Western blot analysis; format: functional, organism-based; parameters: dose 100 mg/kg, route oral
[8] = system: Mus musculus; test: Inhibition of MEK1-mediated ERK phosphorylation in human HT-29 cells xenografted in nude mouse assessed as plasma concentration required for inhibition at 100 mg/kg, po administered as single dose measured after 1 to 12 hrs by Western blot analysis; format: functional, organism-based; parameters: dose 100 mg/kg, route oral; details: HT-29, Plasma
[9] = system: MEF; test: Antitumor activity against MEF harboring KRAS G12D mutant allografted in p53-null mouse assessed as reduction in tumor weight relative to control; format: functional; parameters: scale not given: the % may be the effect or the level left
[10] = system: MEF; test: Antitumor activity against MEF harboring KRAS G12D mutant allografted in p53-null mouse assessed as reduction in tumor volume relative to control; format: functional; parameters: scale not given: the % may be the effect or the level left
[11] = system: MEF; test: Cytotoxicity against MEF harboring KRAS G12D mutant by ATP-based cell viability assay; format: functional; details: Mus musculus
[12] = system: GTPase KRas (Homo sapiens), P01116 [G12D]; test: Binding affinity to KRAS G12D mutant (unknown origin)
Sequence of GTPase KRas (Homo sapiens), P01116 [G12D] (P01116 whole entry G12D, looked up): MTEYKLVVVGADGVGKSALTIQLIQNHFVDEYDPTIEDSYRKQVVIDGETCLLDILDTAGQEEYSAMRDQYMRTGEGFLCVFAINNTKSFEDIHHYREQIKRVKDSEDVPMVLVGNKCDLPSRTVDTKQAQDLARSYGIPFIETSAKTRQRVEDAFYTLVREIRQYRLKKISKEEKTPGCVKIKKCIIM

[13] = system: DLD-1; test: Antiproliferative activity against human DLD1 cells expressing KRAS mutant at 25 nM; format: functional
[14] = Antitumor activity against human H460 cells xenograft model assessed as increase in host survival at 100 mg/kg, ip relative to solvent control (reference value: 24 days); format: functional, NCI-H460; details: route intraperitoneal
[15] = system: A549; test: Cytotoxicity against human A549 cells by SRB assay; format: functional, cell-based
[16] = system: NCI-H2122; test: Cytotoxicity against human NCI-H2122 cells by SRB assay; format: functional, cell-based
[17] = Cytotoxicity against human H460 cells by SRB assay; format: functional, cell-based; details: NCI-H460
[18] = Cytotoxicity against human T29Kt1 cells by SRB assay
[19] = Antitumor activity against human H460 cells xenograft model assessed as tumor growth inhibition at 100 mg/kg, ip relative to solvent control; format: functional; details: NCI-H460, ip, route intraperitoneal, read-out: TGI
[20] = Cytotoxicity against human NCI-H2887 cells by SRB assay; format: functional, cell-based
[21] = Inhibition of cRaf/MEK/ERK (unknown origin); parameters: species or system Homo sapiens
[22] = target: T1, Dual specificity mitogen-activated protein kinase kinase 1; test: Non-competitive inhibition of MEK1 (unknown origin) kinase activity using fluorescent peptide as substrate by fluorescence assay in presence of ATP
[23] = target: RAF proto-oncogene serine/threonine-protein kinase (Homo sapiens, UniProt P04049); test: Inhibition of cRAF (unknown origin) by Caliper assay
Sequence of RAF proto-oncogene serine/threonine-protein kinase (P04049 whole entry): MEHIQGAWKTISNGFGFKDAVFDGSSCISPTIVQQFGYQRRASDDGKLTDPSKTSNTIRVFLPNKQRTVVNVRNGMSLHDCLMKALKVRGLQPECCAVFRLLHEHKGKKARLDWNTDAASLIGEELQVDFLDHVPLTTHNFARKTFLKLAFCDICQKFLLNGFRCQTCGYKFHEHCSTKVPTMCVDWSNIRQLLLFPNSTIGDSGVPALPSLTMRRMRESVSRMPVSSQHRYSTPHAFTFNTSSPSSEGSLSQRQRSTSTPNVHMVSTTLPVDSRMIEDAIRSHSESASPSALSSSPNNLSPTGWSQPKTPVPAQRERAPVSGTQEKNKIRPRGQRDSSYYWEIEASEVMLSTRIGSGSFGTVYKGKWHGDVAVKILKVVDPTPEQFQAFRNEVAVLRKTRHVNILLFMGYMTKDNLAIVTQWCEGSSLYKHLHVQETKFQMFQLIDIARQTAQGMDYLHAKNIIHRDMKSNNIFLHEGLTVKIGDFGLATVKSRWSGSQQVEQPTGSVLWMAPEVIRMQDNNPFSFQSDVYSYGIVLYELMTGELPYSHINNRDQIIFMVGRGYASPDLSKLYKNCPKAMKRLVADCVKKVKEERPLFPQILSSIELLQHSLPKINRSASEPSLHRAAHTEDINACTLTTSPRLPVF

[24] = Inhibition of MEK/ERK (unknown origin); parameters: species or system Homo sapiens
[25] = target: T2, GTPase KRas (Homo sapiens, UniProt P01116); test: Inhibition of full-length human KRas4B (amino acids 1 to 188)-SOS interaction assessed as inhibition of nucleotide exchange activity
T2 sequence (P01116 whole entry, the tested form may be a part): as the sequence (P01116 whole entry G12D, looked up) above, with D12G counted along it

[26] = target: T2, GTPase KRas; test: Inhibition of full-length human KRas4B (amino acids 1 to 188)-SOS interaction assessed as inhibition of SOS-mediated nucleotide release activity

## c1ccc(-c2nn(-c3ccccc3)[n+](-c3ccccc3)n2)cc1
[1]
  Ratio IC50: 6
[2]
  IC50: 2 µg/mL
[3]
  IC50: 12 µg/mL

## O=C(O)c1ccc(NC(c2ccccc2)c2ccc3cccnc3c2O)cc1 (stereo unspecified)
[4]
  IC50: 400 nM
[5]
  IC50: 6 µM

## C[C@H](CO)COc1ccc([C@H]2NC(=O)N([C@H](C(=O)Nc3ccc(I)cc3F)[C@@H](C)c3ccccc3)C2=O)cc1
[6]
  IC50: 25 nM
[7]
  EC50: 1360 nM
[8]
  EC50: 3.35 µM

## C[C@H](CN1CCCC1)C(=O)c1ccc(C(F)(F)F)cc1 [LANPERISONE]
[9]
  Activity: 37%
[10]
  Activity: 24%
[11]
  IC50: 4 µM

## Cc1[nH]c2ccccc2c1Cc1nc2ccccc2[nH]1
[12]
  Activity: 1.3 mM

## CC[C@@H]1C(=O)N(C)c2cnc(Nc3ccc(C(=O)NC4CCN(C)CC4)cc3OC)nc2N1C1CCCC1 [BI-2536]
[13]
  inhibition at 0.025 µM: > 50%

## O=Cc1cn(Cc2ccc(Cl)cc2)c2ccccc12
[14]
  Survival: 32 days
[15]
  IC50: ≤ 3000 nM
[16]
  IC50: ≤ 3000 nM
[17]
  IC50: ≤ 3000 nM
[18]
  IC50: 4.81 µM
[19]
  inhibition in vivo at 100 mg/kg: 75.4%
[20]
  IC50: ≤ 3000 nM

## CCCC(c1cc(C(C)(C)C)c(O)cc1C)c1cc(C(C)(C)C)c(O)cc1C
[4]
  IC50: 400 nM
[5]
  IC50: 6 µM

## CC[C@H](C)[C@H](N)C(=O)Nc1ccc2nc(Cc3c[nH]c4ccccc34)[nH]c2c1
[12]
  Activity: 0.19 mM

## NC(=O)c1nnn(Cc2cc(Cl)c(C(=O)c3ccc(Cl)cc3)c(Cl)c2)c1N [CARBOXYAMIDOTRIAZOLE]
[4]
  IC50: 400 nM
[5]
  IC50: 6 µM

## CCC(=O)c1csc(NC(=O)[C@H]([C@@H](C)c2ccccc2)N2C(=O)N[C@H](c3ccc(OCCO)cc3)C2=O)n1
[21]
  Ki: 53 nM
[22]
  IC50: 23 nM
[23]
  Ki: > 50 µM
[24]
  Ki: 184 nM

## Cc1[nH]c2cc(Cl)cc(Cl)c2c1CCN
[25]
  IC50: 342 µM
[26]
  IC50: 155 µM
